Results: patent US7612036B2, “Peptoid compounds” (University of Wollongong, priority 2001, dated 2009)
In brackets after ≈: the same amount, converted by molar mass. Read-outs that look alike come from different tables or passages of the source.

Legend:
[1] = tested on: Staphylococcus aureus (ATCC 6538P); test: Antibacterial screen (MIC, 96 well microtitre broth dilution) against S. aureus; type: cell-based; details: 37° C. for 18 hours, highest dilution of compound that prevented bacterial growth
Procedure: General Methods for Antibacterial Screens
• SA: Staphylococcus aureus • PA: Pseudomonas aeruginosa • KP: Klebsiella pneumoniae • SP: Streptococcus pneumoniae Bacterial Strains Used: • Staphylococcus aureus (ATCC 6538P) • Pseudonmonas aeruginosa (ATCC 27853) • Klebsiella pneumoniae (IP103623) • Streptococcus pneumoniae (IP53146) Culture Media
Mueller-Hinton Broth Medium (MHB): MHB (Oxoid CM405) was prepared with final concentrations of 1 μg/mL MgCl2 and 2 μg/mL CaCl2. Culture medium was pre-warmed for approximately 2-3 hours at 37° C. before use.
From thawed cryovials, P. aeruginosa, K. pneumoniae and S. aureus were streaked onto Mueller Hinton Agar (MHA), and S. pneumoniae was streaked onto Blood Agar (BA), and plates were incubated overnight at 37° C. For each bacterial strain, 10 cryovials were prepared by looping several colonies into 0.5 mL of 20% glycerol solution. The cryovials were immediately stored at −140° C.
A cryovial was removed from −140° C. storage and thawed at room temperature. An MHA plate was streaked with a loopful of bacterial suspension and incubated overnight at 37° C. to create a parent plate (P1). A daughter plate (D1) was streaked from the parent plate and incubated overnight at 37° C. The parent plate was stored at 4° C. A loop of colony from the daughter plate was used to inoculate a 125 mL flask containing 20 mL of Mueller Hinton Broth (MHB) containing 25 μg/mL CaCl2.2H2O and 12.5 μ/mL MgCl2.6H2O. The flask was shaken at 260 rpm for 18 hours at 37° C. on an orbital incubator shaker. The parent plate (P1) was reused within 9 days to generate another daughter plate (D2), which, in turn, was used to inoculate a broth culture. Parent plates were used twice (to generate D1 and D2 plates) before a new one was prepared from the previously thawed cryovial. The second parent plate (P2) was used to generate two additional daughter plates using the procedure outlined above before being discarded. Cryovials were used twice to prepare parent plates (P1 and P2) before being discarded.
Prepare a 1/10 dilution of Seed Cultures by adding 250 μl of the cultures to 2,250 μl of MHB in a disposable cuvette. Read OD650 and multiply OD650 by a factor of 10 to calculate the optical density of the undiluted culture. Calculate the required dilution factor by dividing the observed OD650 by the standard OD650 for each strain (previously determined in assay optimisation studies).
Prepare sufficient volumes of the final inoculum cultures in pre-warmed MHB (37° C.) by diluting the standardised cultures to the required final concentration. The final dilutions used for each of the bacterial strains were as follows: • K. pneumoniae—10^6 dilution; • P. aeruginosa—10^6 dilution; • S. aureus—10^8 dilution; • S. pneumoniae—10^4 dilution. Assay Procedure (for 96 well Microtiter Plates)
Add 50 microliters of liquid medium to each well of a 96 well microtitre plate. Dissolve test samples in liquid medium. Add 50 microliters of test sample in triplicate to the top row of the microtitre plate, and include a vancomycin control set. Also include a compound negative control well set. Allow inoculated culture medium to incubate at 37° C. for 30 minutes, shaking at 130 rpm. Using a multichannel pipette, mix the contents of the first row and transfer 50 microliters of mixed broth solutions to the next row, change tips and repeat until the last row contains diluted compound or control and discard 50 microliters from the last row. Each well should now contain 50 microliters of diluted compound or negative control medium. Using a multistepper pipette add 50 microliters of inoculum to each well of the plate, save for one row containing the compound negative control, to this row add 50 microliters of liquid broth. Incubate plates at 37° C. for 18 hours, shaking at 100 rpm in an environment of approximately 90% relative humidity. Results were recorded as the highest dilution of compound that prevented bacterial growth (MIC).

[2] = cited from earlier work
[3] = tested on: D-Ala-D-lactate terminus of the peptidoglycan; details: D-Ala-D-lactate terminus versus D-Ala-D-Ala terminus; cited from earlier work
[4] = Staphylococcus aureus, ATCC6538P, read-out: MIC

## C=CC[C@H](NC(=O)[C@H](CCCCN)NC(=O)Cc1cn(CC=C)c2ccccc12)C(=O)OC
other
  melting point: 103 to 106 °C

## 6-Acetamido-8,11-diaza-9-(3-guanidinopropyl)-12-methoxycarbonyl-7,10-dioxo-[12](3,6)-1H-carbazolophane HCl (9R,12S) [Example 38]
[1]
  MIC: 32 µg/mL

## 6-Acetamido-8,11-diaza-9-(3-guanidinopropyl)-12-methoxycarbonyl-7,10-dioxo-[12](3,6)-1H-carbazolophane HCl (9S,12S) [Example 36]
[1]
  MIC: 32 µg/mL

## 6-Acetamido-8,11-diaza-14-ene-9-(3-guanidinopropyl)-12-methoxycarbonyl-7,10-dioxo-[12](3,6)-1H-carbazolophane HCl (9R,12S) [Example 37]
[1]
  MIC: 64 µg/mL

## 6-Acetamido-9-(4-aminobutyl)-8,11-diaza-1-tert-butoxycarbonyl-14-ene-12-methoxycarbonyl-7,10-dioxo-[12](3,6)-1H-carbazolophane HCl (9S,12S) [Example 39A]
[1]
  MIC: 32 µg/mL

## 6-Acetamido-9-(4-aminobutyl)-8,11-diaza-12-methoxycarbonyl-7,10-dioxo-[12](3,6)-1H-carbazolophane HCl (9R,12S) [Example 42]
[1]
  MIC: 64 µg/mL

## 6-Acetamido-9-(4-aminobutyl)-8,11-diaza-12-methoxycarbonyl-7,10-dioxo-[12](3,6)-1H-carbazolophane HCl (9S,12S) [Example 40]
[1]
  MIC: 64 µg/mL

## COC(=O)C1CC=CCc2cc3ccccc3c(c2OC)-c2c(OC)c(cc3ccccc23)CC(NC(C)=O)C(=O)NC(CCCCN)C(=O)N1.Cl (single isomer, unassigned) [15 (one isomer)]
[1]
  MIC: 8 µg/mL

## COC(=O)C1CC=CCc2cc3ccccc3c(c2OC)-c2c(OC)c(cc3ccccc23)CC(NC(C)=O)C(=O)NC(CCCNC(=N)N)C(=O)N1.Cl (single isomer, unassigned) [21A (another isomer)]
[1]; hydrochloride
  MIC: 64 µg/mL

## COC(=O)C1CC=CCc2cc3ccccc3c(c2OC)-c2c(OC)c(cc3ccccc23)CC(NC(C)=O)C(=O)NC(CCCNC(=N)N)C(=O)N1.Cl (single isomer, unassigned) [21A (one isomer)]
[1]; hydrochloride
  MIC: 16 µg/mL

## CCCc1ccc2[nH]c3ccc(CC(NC(C)=O)C(=O)N[C@H](CCCCN)C(=O)N[C@@H](CCC)C(=O)OC)cc3c2c1.Cl (single isomer, unassigned) [44 (another isomer)]
[1]
  MIC: 64 µg/mL

## CCCc1ccc2[nH]c3ccc(CC(NC(C)=O)C(=O)N[C@H](CCCCN)C(=O)N[C@@H](CCC)C(=O)OC)cc3c2c1.Cl (single isomer, unassigned) [44 (one isomer)]
[1]
  MIC: 32 µg/mL

## Cl.Cl.NCC(O)CC1NC(=O)C(N)Cc2cc(ccc2O)-c2ccc(O)c(c2)C(O)C(C(=O)O)NC1=O (stereo not shown) [Biphenomycin A]
[2]
  toxicity in mice: low toxicity

## C=CCc1cc2ccccc2c(-c2c(OC)c(CC(NC(C)=O)C(=O)N[C@H](CCCCNC(=O)OC(C)(C)C)C(=O)N[C@@H](CC=C)C(=O)OCc3ccccc3)cc3ccccc23)c1OC (stereo partly drawn) [Example 13A, benzyl (aR/S,2S,5R)-8-acetamido-2-allyl-9-{3-[3′-allyl-2,2′-dimethoxy-1,1′-binaphthyl]}-3,6-diaza-5-(4-{[(tert-butoxy)carbonyl]amino}butyl)-4,7-dioxononanoate]
[1]
  MIC: 4 µg/mL (≈ 4.45 µM)

## COC(=O)C1CCCCc2cc3ccccc3c(c2OC)-c2c(OC)c(cc3ccccc23)CC(NC(C)=O)C(=O)NC(CCCCN)C(=O)N1.Cl [Example 15A, (aR/S,7R,10S)-4-acetamido-7-(4-aminobutyl)-6,9-diaza-10-methoxycarbonyl-1(1,3),2(1,3)-di(2-methoxynaphthalena)-5,8-dioxocyclotetradecaphane hydrochloride]
[1]
  MIC: 16 µg/mL

## C=CCc1cc2ccccc2c(-c2c(OC)c(CC(NC(C)=O)C(=O)N[C@H](CCCNC(=N)N)C(=O)N[C@@H](CC=C)C(=O)OC)cc3ccccc23)c1OC.Cl (stereo partly drawn) [Example 19A, methyl (aR/S,2S,5R)-8-acetamido-2-allyl-9-[3-(3′-allyl-2,2′-dimethoxy-1,1′-binaphthyl)]-3,6-diaza-5-(3-guanidinopropyl)-4,7-dioxononanoate hydrochloride]
[1]
  MIC: 4 µg/mL

## C=CCOc1ccc2ccccc2c1-c1c(OCC(=O)N[C@H](CCCCN)C(=O)N[C@@H](CC=C)C(=O)OC)ccc2ccccc12.Cl [Example 97]
[1]; [4]
  MIC: 4 µg/mL

## COC(=O)[C@@H]1CC=CCOc2ccc3ccccc3c2-c2c(ccc3ccccc23)OCC(=O)N[C@H](CCCCNC(=N)N)C(=O)N1.Cl [Example 103, (aR,S,7R,10S)-6,9-diaza-3,15-dioxa-5,8-dioxo-7-(4-guanidinobutyl)-10-methoxycarbonyl-1(1,2),2(1,2)-dinaphthalenacyclopentadecaphane-12-ene hydrochloride]
[1]
  MIC: 8 µg/mL

## C=CCOc1ccc2ccccc2c1-c1c(OCCCC(=O)N[C@H](CCCCN)C(=O)N[C@@H](CC=C)C(=O)OC)ccc2ccccc12.Cl [Example 107, methyl (aS/R,2S,5R)-2-allyl-10-(2′-allyloxy-1,1′-binaphth-2-oxy)-5-(4-aminobutyl)-3,6-diaza-4,7-dioxodecanoate hydrochloride]
[1]; [4]
  MIC: 16 µg/mL

## COC(=O)[C@@H]1C/C=C/COc2ccc3ccccc3c2-c2c(ccc3ccccc23)OCCCC(=O)N[C@H](CCCCN)C(=O)N1.Cl [Example 109]
[1]; [4]
  MIC: 64 µg/mL

## C=CCOc1ccc2ccccc2c1-c1c(OCCCC(=O)N[C@H](CCCCNC(=N)N)C(=O)N[C@@H](CC=C)C(=O)OC)ccc2ccccc12.Cl [Example 111, methyl (aS/R,2S,5R)-2-allyl-10-(2′-allyloxy-1,1′-binaphth-2-oxy)-3,6-diaza-5-(4-guanidinobutyl)-4,7-dioxodecanoate hydrochloride]
[1]
  MIC: 8 µg/mL

## COC(=O)C1CCC=COc2ccc3ccccc3c2-c2c(ccc3ccccc23)OCCCC(=O)NC(CCCCNC(=N)N)C(=O)N1.Cl [Example 113, (aR/S,9R,12S)-8,11-diaza-9-(4-guanidinobutyl)-12-methoxycarbonyl-1(1,2),2(1,2)-dinaphthalena-3,17-dioxa-7,10-dioxoheptadecaphane-15-ene hydrochloride]
[1]
  MIC: 8 µg/mL

## CN[C@H](CC(C)C)C(=O)N[C@H]1C(=O)N[C@@H](CC(N)=O)C(=O)N[C@H]2C(=O)N[C@H]3C(=O)N[C@H](C(=O)N[C@H](C(=O)O)c4cc(O)cc(O)c4-c4cc3ccc4O)[C@H](O)c3ccc(c(Cl)c3)Oc3cc2cc(c3O[C@@H]2O[C@H](CO)[C@@H](O)[C@H](O)[C@H]2O[C@H]2C[C@](C)(N)[C@H](O)[C@H](C)O2)Oc2ccc(cc2Cl)[C@H]1O [Vancomycin]
[3]
  decrease in affinity: ca. 1000 fold

## (aR/S,7R,10S)-4-acetamido-6,9-diaza-10-benzyloxycarbonyl-7-(4-{[(tert-butoxy)carbonyl]amino}butyl)-1(1,3),2(1,3)-di(2-methoxynaphthalena)-5,8-dioxocyclotetradecaphane-12-ene [Example 15B]
[1]
  MIC: 16 µg/mL

## methyl (aR/S,2S,5R)-2-allyl-5-[2-({[(2′-allyloxy-1,1′-binaphthoxymethyl]carbonyl}amino)-3-aza-9-guanidino-4-oxononanoate hydrochloride [Example 101]
[1]
  MIC: 8 µg/mL
